34 compounds from US9221796B2, “Selective NR2B antagonists” (BRISTOL-MYERS SQUIBB COMPANY, priority 2014, dated 2015) can be followed below.

Sequence of NR2B-subtype NMDA receptors (Q00960 27-1482, other chains not shown): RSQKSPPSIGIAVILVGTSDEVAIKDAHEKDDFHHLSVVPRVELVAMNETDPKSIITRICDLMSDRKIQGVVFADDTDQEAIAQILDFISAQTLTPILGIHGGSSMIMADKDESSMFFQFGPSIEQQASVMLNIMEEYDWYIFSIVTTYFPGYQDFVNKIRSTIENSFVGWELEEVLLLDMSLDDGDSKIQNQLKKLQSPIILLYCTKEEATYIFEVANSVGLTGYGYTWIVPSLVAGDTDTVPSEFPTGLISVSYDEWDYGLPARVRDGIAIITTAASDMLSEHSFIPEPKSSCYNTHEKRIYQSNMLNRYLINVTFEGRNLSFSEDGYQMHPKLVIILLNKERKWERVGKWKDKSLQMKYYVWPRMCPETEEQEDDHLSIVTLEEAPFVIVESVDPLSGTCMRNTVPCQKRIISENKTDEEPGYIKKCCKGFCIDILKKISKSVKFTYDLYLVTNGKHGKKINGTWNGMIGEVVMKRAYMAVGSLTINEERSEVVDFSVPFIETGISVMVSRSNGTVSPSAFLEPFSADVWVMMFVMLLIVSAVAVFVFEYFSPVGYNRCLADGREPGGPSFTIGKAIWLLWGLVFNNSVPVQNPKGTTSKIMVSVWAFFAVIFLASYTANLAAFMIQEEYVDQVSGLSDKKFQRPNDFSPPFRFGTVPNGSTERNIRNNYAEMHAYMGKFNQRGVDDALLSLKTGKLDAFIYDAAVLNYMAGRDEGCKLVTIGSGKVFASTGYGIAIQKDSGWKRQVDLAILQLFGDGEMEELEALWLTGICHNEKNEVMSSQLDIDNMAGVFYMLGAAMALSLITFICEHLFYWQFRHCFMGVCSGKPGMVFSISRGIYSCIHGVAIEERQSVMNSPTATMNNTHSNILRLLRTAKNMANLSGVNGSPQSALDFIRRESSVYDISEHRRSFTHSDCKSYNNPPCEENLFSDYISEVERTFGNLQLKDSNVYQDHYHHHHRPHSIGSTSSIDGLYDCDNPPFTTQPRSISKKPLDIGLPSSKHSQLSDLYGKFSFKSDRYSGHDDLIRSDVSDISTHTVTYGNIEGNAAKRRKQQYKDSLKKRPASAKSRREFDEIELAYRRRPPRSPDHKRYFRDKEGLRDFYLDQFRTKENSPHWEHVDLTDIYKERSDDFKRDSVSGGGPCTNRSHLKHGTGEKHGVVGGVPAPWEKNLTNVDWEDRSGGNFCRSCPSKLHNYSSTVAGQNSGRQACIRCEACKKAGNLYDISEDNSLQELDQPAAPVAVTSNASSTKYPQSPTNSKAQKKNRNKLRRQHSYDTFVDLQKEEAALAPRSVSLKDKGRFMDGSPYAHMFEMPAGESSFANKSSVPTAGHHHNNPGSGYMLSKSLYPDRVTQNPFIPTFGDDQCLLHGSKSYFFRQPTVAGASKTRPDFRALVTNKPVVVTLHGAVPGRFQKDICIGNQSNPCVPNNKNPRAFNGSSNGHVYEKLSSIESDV

For the first assay, the target named is NR2B-subtype NMDA receptors (Rattus norvegicus (Rat), UniProt P35439+Q00960). Put plainly: Radioligand binding assay (3H Ro 25-6981 competition, forebrain membranes). To be noted: 3H Ro 25-6981 (4 nM), listed as 44, E-2, read-out: NR2B Binding Ki. How it is done:
Radioligand Binding Assay. […] Buchy D; Klingelschmidt A; Messer J; Bleuel Z; Kemp J A; Richards J G. […] Thawed brains were homogenized using a Dounce homogenizer and centrifuged at 48000×g for 20 min. The pellet was resuspended in cold buffer and homogenized again using a Dounce homogenizer. […] After incubation for 1 hr at room temperature, the membrane bound radioligand was harvested on to GF/B filter plates (treated with 0.5% PEI for 1 hr at room temperature). The filter plates were dried at 50° C. for 20 mins, incubated with microscint 20 for 10 minutes and finally, the counts were read on TopCount (Perkin Elmer). […] CPM values were converted to % inhibition and the concentration response curves were plotted using custom made software. Each experiment was repeated at least twice to obtain the final binding Ki values for experimental compounds.
The Ki is the equilibrium dissociation constant of an inhibitor or competing ligand from its target. Consider `O=C1C(N2CCC(c3ccc(O)cc3)C(O)C2)CCN1Cc1ccc(F)cc1` (single isomer, unassigned) [Example 44, E-2, 1-(4-Fluorobenzyl)-3-(cis-3-hydroxy-4-(4-hydroxyphenyl)piperidin-1-yl)pyrrolidin-2-one], for which the Ki worked out at 5.7 nM.

Staying with this assay, now noted: 3H Ro 25-6981 (4 nM), read-out: NR2B Binding Ki.
With `O=C1C(N2CCC(c3ccc(O)cc3)C(O)C2)CCN1Cc1ccc(F)cc1` (single isomer, unassigned) [Example 9d, 1-(4-Fluorobenzyl)-3-(3-hydroxy-4-(4-hydroxyphenyl)piperidin-1-yl)pyrrolidin-2-one], the Ki came to 160 nM. The same measure, in the same setting: for `O=C1[C@@H](N2CC[C@@H](c3ccc(O)cc3)[C@H](F)C2)CCN1Cc1ccc(C(F)(F)F)cc1` [Example 71, (S)-3-((3S,4S)-3-Fluoro-4-(4-hydroxyphenyl)piperidin-1-yl)-1-(4-(trifluoromethyl)-benzyl)pyrrolidin-2-one] the value was 560 nM; for `Cc1ccccc1CN1CCC(N2CCC(c3ccc(O)cc3)C(F)(F)C2)C1=O` (stereo not shown) [Example 103, 3-(3,3-Difluoro-4-(4-hydroxyphenyl)piperidin-1-yl)-1-(2-methylbenzyl)pyrrolidin-2-one], 81 nM; for `O=C1C(N2CCC(c3ccc(O)cc3)C(O)C2)CCN1Cc1ccc(F)cc1` (single isomer, unassigned) [Example 9a, 1-(4-Fluorobenzyl)-3-(3-hydroxy-4-(4-hydroxyphenyl)piperidin-1-yl)pyrrolidin-2-one], 180 nM. On the same count and under the same terms, for `O=C1[C@H](N2CC[C@@H](c3ccc(O)cc3)[C@H](F)C2)CCN1Cc1ccc(C(F)F)cc1` [Example 114, P-1, (R)-1-(4-(difluoromethyl)benzyl)-3-((3S,4S)-3-fluoro-4-(4-hydroxyphenyl)piperidin-1-yl)pyrrolidin-2-one] the value was 3.5 nM. As for `C[C@@H](c1ccccc1)N1CCC(N2CCC(c3ccc(O)cc3)CC2)C1=O` (stereo partly drawn) [Example 32, 3-(4-(4-Hydroxyphenyl)piperidin-1-yl)-1-((S)-1-phenylethyl)pyrrolidin-2-one], the inhibitory constant (Ki) stood at 100 nM. Take `Cc1ccc(CN2CC[C@H](N3CC[C@@H](c4ccc(O)cc4)[C@H](F)C3)C2=O)cc1F` [Example 47, P-1, (S)-3-((3S,4S)-3-Fluoro-4-(4-hydroxyphenyl)piperidin-1-yl)-1-(3-fluoro-4-methylbenzyl)pyrrolidin-2-one]: the Ki turned out to be 470 nM. Same read-out and setting: for `O=C1[C@H](N2CC[C@H](c3ccc(O)cc3)[C@@H](F)C2)CCN1Cc1ccc(C(F)(F)F)cc1` [Example 88, (R)-3-((3R,4R)-3-Fluoro-4-(4-hydroxyphenyl)piperidin-1-yl)-1-(4-(trifluoromethyl)benzyl)-pyrrolidin-2-one] the value was 5.3 nM.

As to `O=C1C(N2CCC(c3ccc(O)cc3)C(F)(F)C2)CCN1Cc1ccc(C(F)(F)F)cc1` (stereo not shown) [Example 110, 3-(3,3-Difluoro-4-(4-hydroxyphenyl)piperidin-1-yl)-1-(4-(trifluoromethyl)benzyl)-pyrrolidin-2-one], the Ki came to 36 nM. `O=C1C(N2CCC(c3ccc(O)cc3)CC2)CCCN1Cc1ccccc1` (single isomer, unassigned) [Example 41a, 1′-Benzyl-4-(4-hydroxyphenyl)-[1,3′-bipiperidin]-2′-one]: the Ki was 990 nM. On the same count and under the same terms, for `O=C1[C@H](N2CC[C@@H](c3ccc(O)cc3)[C@H](F)C2)CCN1Cc1ccc(F)cc1` [Example 48, P-3] the value was 11 nM; for `O=C1C(N2CCC(c3ccc(O)cc3)C(O)C2)CCN1Cc1ccc(F)cc1` (stereo not shown) [Example 8, 1-(4-Fluorobenzyl)-3-(3-hydroxy-4-(4-hydroxyphenyl)piperidin-1-yl)pyrrolidin-2-one], 420 nM. For the compound `Cc1cccc(CN2CCC(N3CC[C@H](c4ccc(O)cc4)[C@@H](F)C3)C2=O)c1` (stereo partly drawn) [Example 77, 3-((3R,4R)-3-Fluoro-4-(4-hydroxyphenyl)piperidin-1-yl)-1-(3-methylbenzyl)pyrrolidin-2-one], the Ki came out at 27 nM.

Regarding `O=C1[C@H](N2CCC(c3ccc(O)cc3)CC2)CCN1Cc1ccc(O)c(O)c1` [Example 43, (R)-1-(3,4-Dihydroxybenzyl)-3-(4-(4-hydroxyphenyl)piperidin-1-yl)pyrrolidin-2-one], the Ki was 150 nM. The same measure, in the same setting: for `O=C1[C@H](N2CCC(c3ccc(O)cc3)C(F)(F)C2)CCN1Cc1ccc(Cl)cc1` (stereo partly drawn) [Example 106, P-2, (3R)-1-(4-Chlorobenzyl)-3-(3,3-difluoro-4-(4-hydroxyphenyl)piperidin-1-yl)pyrrolidin-2-one] the value was 4.6 nM; for `O=C1[C@H](N2CCC(c3ccc(O)cc3)C(F)(F)C2)CCN1Cc1ccc(F)c(F)c1` (single isomer, unassigned) [Example 108, P-2], 15 nM.

`O=C1[C@@H](N2CC[C@@H](c3ccc(O)cc3)[C@H](F)C2)CCN1Cc1ccc(C(F)F)cc1` [Example 114, P-2, (S)-1-(4-(difluoromethyl)benzyl)-3-((3S,4S)-3-fluoro-4-(4-hydroxyphenyl)piperidin-1-yl)pyrrolidin-2-one]: the Ki is 180 nM. Same read-out and setting: for `Cc1ccccc1CN1CCC(N2CC[C@H](c3ccc(O)cc3)[C@@H](F)C2)C1=O` (stereo partly drawn) [Example 76, 3-((3R,4R)-3-Fluoro-4-(4-hydroxyphenyl)piperidin-1-yl)-1-(2-methylbenzyl)pyrrolidin-2-one] the value was 33 nM; for `O=C1C(N2CCC(c3ccc(O)cc3)C(F)(F)C2)CCN1Cc1ccc(OC(F)F)cc1` (stereo not shown) [Example 105, 3-(3,3-Difluoro-4-(4-hydroxyphenyl)piperidin-1-yl)-1-(4-(difluoromethoxy)benzyl)-pyrrolidin-2-one], 180 nM.

As to `O=C1C(N2CCN(c3ccc(O)cc3)CC2)CCN1Cc1ccc(F)cc1` (stereo not shown) [Example 113, 1-(4-fluorobenzyl)-3-(4-(4-hydroxyphenyl)piperazin-1-yl)pyrrolidin-2-one], the Ki is 33 nM. The same measure, in the same setting: for `Cc1ccc(CN2CCCC(N3CCC(c4ccc(O)cc4)CC3)C2=O)cc1F` (stereo not shown) [Example 39, 1′-(3-Fluoro-4-methylbenzyl)-4-(4-hydroxyphenyl)-[1,3′-bipiperidin]-2′-one] the value was 300 nM; for `O=C1C(N2CCC(c3ccc(O)cc3)CC2)CCN1C1CCc2ccccc21` (stereo not shown) [Example 34, 1-(2,3-Dihydro-1H-inden-1-yl)-3-(4-(4-hydroxyphenyl)piperidin-1-yl)pyrrolidin-2-one], 670 nM. The same measure, in the same setting: for `O=C1C(N2CCC(c3ccc(O)cc3)C(F)(F)C2)CCN1Cc1ccc(F)c(Cl)c1` (stereo not shown) [Example 100, 1-(3-Chloro-4-fluorobenzyl)-3-(3,3-difluoro-4-(4-hydroxyphenyl)piperidin-1-yl)pyrrolidin-2-one] the value was 570 nM. As to `O=C1C(N2CCC(c3ccc(O)cc3)C(F)(F)C2)CCN1Cc1ccc(OC(F)F)cc1` (stereo not shown) [Example 94, 3-(3,3-Difluoro-4-(4-hydroxyphenyl)piperidin-1-yl)-1-(4-(difluoromethoxy)benzyl)-pyrrolidin-2-one], the inhibition constant (Ki) turned out to be 390 nM. On the same count and under the same terms, for `Cc1ccc(CN2CC[C@H](N3CC[C@H](c4ccc(O)c(F)c4)[C@@H](F)C3)C2=O)cc1F` [Example 45, P-3, (S)-3-((3R,4R)-3-Fluoro-4-(3-fluoro-4-hydroxyphenyl)piperidin-1-yl)-1-(3-fluoro-4-methylbenzyl)pyrrolidin-2-one] the value was 380 nM; for `O=C1C(N2CC[C@H](c3ccc(O)cc3)[C@@H](F)C2)CCN1Cc1ccc(OC(F)F)cc1` (stereo partly drawn) [Example 78, 1-(4-(Difluoromethoxy)benzyl)-3-((3R,4R)-3-fluoro-4-(4-hydroxyphenyl)piperidin-1-yl)pyrrolidin-2-one], 190 nM; for `O=C1C(N2CCC(c3ccc(O)cc3)C(F)(F)C2)CCN1c1ccc(OC(F)F)c(Cl)c1` (stereo not shown) [Example 90, 1-(3-Chloro-4-(difluoromethoxy)phenyl)-3-(3,3-difluoro-4-(4-hydroxyphenyl)piperidin-1-yl)pyrrolidin-2-one], 77 nM.

Turning to `O=C1[C@H](N2CCC(c3ccc(O)cc3)CC2)CCN1Cc1ccc(Cl)cc1` [Example 18b, (R)-1-(4-Chlorobenzyl)-3-(4-(4-hydroxyphenyl)piperidin-1-yl)pyrrolidin-2-one], the Ki turned out to be 1.5 nM.

Regarding `O=C1[C@@H](N2CCC(c3ccc(O)cc3)C(F)(F)C2)CCN1Cc1ccc(Cl)c(F)c1` (stereo partly drawn) [Example 96, P-1, (3S)-1-(4-Chloro-3-fluorobenzyl)-3-(3,3-difluoro-4-(4-hydroxyphenyl)piperidin-1-yl)pyrrolidin-2-one], the Ki turned out to be 490 nM.

As to `Cc1ccccc1CN1CCC(N2CCC(c3ccc(O)cc3)C(F)(F)C2)C1=O` (stereo not shown) [Example 92, 3-(3,3-Difluoro-4-(4-hydroxyphenyl)piperidin-1-yl)-1-(2-methylbenzyl)pyrrolidin-2-one], the Ki is 59 nM. The same measure, in the same setting: for `O=C1C(N2CC[C@@H](c3ccc(O)cc3)[C@H](F)C2)CCN1Cc1ccc(Cl)c(Cl)c1` (stereo partly drawn) [Example 70, 1-(3,4-Dichlorobenzyl)-3-((3S,4S)-3-fluoro-4-(4-hydroxyphenyl)piperidin-1-yl)pyrrolidin-2-one] the value was 180 nM. Same read-out and setting: for `O=C1[C@@H](N2CCC(c3ccc(O)cc3)C(F)(F)C2)CCN1Cc1ccc(Cl)cc1` (stereo partly drawn) [Example 106, P-1, (3S)-1-(4-Chlorobenzyl)-3-(3,3-difluoro-4-(4-hydroxyphenyl)piperidin-1-yl)pyrrolidin-2-one] the value was 990 nM.

As to `Cc1ccc(CN2CCC(N3CCCC(c4ccc(O)cc4)C3)C2=O)cc1` (stereo not shown) [Example 3, 1-(4-Methylbenzyl)-3-(3-(4-hydroxyphenyl)piperidin-1-yl)pyrrolidin-2-one], the Ki is 1320 nM.
